# Values quoted from earlier work as cited in publication PMC11238383, “A review on the cultivation, bioactive compounds, health-promoting factors and clinical trials of medicinal mushrooms Taiwanofungus camphoratus, Inonotus obliquus and Tropicoporus linteus” (Fungal Biology and Biotechnology, 2024).
# Where two headings read alike, the source gives them in different places.
# Experiments:
# [1] = set-up: method as in PMID 31891260; details: ref [61]
# [2] = tested on: P. gingivalis; details: ref [131], [132], [133]
# [3] = for reducing power: ref [133]; for antioxidant activity: ref Lee et al. [226]
# [4] = tested on: human cancer cells (U251, HL60, SW480, and A549); details: ref [63]
# [5] = tested on: normal cells (LO2); details: ref [63]
# [6] = set-up: method as in Zhang et al. [179]; details: DPPH assay; ref Zhang et al. [179]
# [7] = tested on: inducible-nitric oxide synthase (iNOS) protein; set-up: method as in PMID 33434790; details: ref [107]
# [8] = tested on: mouse melanoma and human lung cancer cells; set-up: method as in PMID 18239302; details: ref [135]
# [9] = tested on: AGS, MCF-7, and PC3 cancer cells; set-up: method as in PMID 32899899; details: ref [95]
# [10] = tested on: NO; set-up: method as in Park et al. [99]; details: ref Park et al. [99]
# [11] = tested on: H2O2)-injured human neuroblastoma cells; set-up: method as in PMID 33084385; details: ref [108]
# [12] = tested on: U251 and MCF-7; set-up: method as in PMID 31891260; details: ref [61]
# [13] = tested on: MDA-MB-231 cells; details: 10 µg/mL alone; ref [226]
# [14] = target: H1N1 neuraminidase; details: ref [13]
# [15] = tested on: aldose reductase; set-up: method as in Lee et al. [136]; details: ref Lee et al. [136]
# [16] = tested on: Influenza A H1N1 virus; set-up: method as in Hwang et al. [13]; details: 10 uM; ref Hwang et al. [13]
# [17] = tested on: human glioblastoma cells; set-up: method as in Yang et al. [70]; details: in vitro; ref Yang et al. [70]
# [18] = tested on: glioblastoma-xenografted mice; set-up: method as in Yang et al. [70]; details: in vivo; ref Yang et al. [70]
# [19] = tested on: A549 and HeLa cell lines; details: ref [105]
# [20] = tested on: Polyinosinic-polycytidylic acid (poly IC)-induced RAW 264.7 cells
# [21] = tested on: Oleic and palmitic acids (O/P) lipid accumulation-induced HepG2 cells; set-up: method as in Chiu et al. [138]; details: ref Chiu et al. [138]
# [22] = tested on: Severe acute respiratory syndrome coronavirus 2 (SARS-CoV-2) virus-infected HepG2 cells; set-up: method as in Li et al. [35], [38]; details: ref Li et al. [35], [38]
# [23] = tested on: MIN6N beta-cells; set-up: method as in Lee et al. [235]; details: 10–70 uM, dose-dependent, ref Lee et al. [235]
# [24] = tested on: High-fat diet-induced C57BL/6J mice; set-up: method as in Lin et al. [175]; details: ref Lin et al. [175]
# [25] = tested on: High-fat diet-induced C57BL/6J mice; set-up: method as in Lin et al. [175]; details: ref Lin et al. [175]; remark: listed apart in the source
# [26] = tested on: human adenocarcinoma and human lung carcinoma cell lines; set-up: method as in doi:10.1016/j.jff.2020.104025; details: ref [97]
compound,measurement,setting,value
C=C(CC[C@@H](C)[C@H]1CC[C@H]2C3=C(C(=O)C[C@]12C)[C@@]1(C)CCC(=O)[C@@H](C)[C@@H]1C[C@H]3O)C(C)C [antcamphorol J],ROS scavenging,[1],ROS scavenging abilities
C=C1CCCC(C)(C)C1C=CC(C)=CC(=O)O (stereo not drawn) [( +)-γ-ionylideneacetic acid],antimicrobial activity,[2],did not show any detectable activities
"C=C1CC(O)CC(C)(C)C1/C=C/C(C)=C/C(=O)O (stereo not drawn) [(2E,4E)-4′-Hydroxy-γ-ionylideneacetic acid]",reducing power,[3],weak reducing power
antroquinonol Y,cytotoxicity,[4],significant cytotoxic effects
same,effect on normal cells,[5],without affecting normal cells
antcamphorol G,ROS scavenging,[1],ROS scavenging abilities
"O=C1O[C@H]([C@@H](O)CO)C(O)=C1O [vitamin C, ascorbic acid]",EC50,[6],6 µg/mL
"C=C1CCCC(C)(C)C1CC/C(C)=C/CO (single isomer, unassigned; (-)) [(-)-trans-γ-monocyclofarnesol]",antimicrobial activity,[2],antimicrobial effects
inonotusol L,interaction with iNOS protein,[7],capable of interacting with inducible-nitric oxide synthase (iNOS) protein
phellilane H,antimicrobial activity,[2],did not show any detectable activities
same,reducing power,[3],weak reducing power
"O=C(O)/C=C/c1ccc(O)c(O)c1 [Caffeic acid, caffeic acid]",antioxidant activity,[3],"Potent antioxidant activity, with higher antioxidant activity than BHA and Trolox in FRAP assay"
O=c1oc(/C=C/c2ccc(O)c(O)c2)cc2oc(-c3ccc(O)c(O)c3)cc12 [Phellifuropyranone A],antiproliferative activity,[8],antiproliferative activity
CC1=CC[C@@H]([C@@](C)(O)[C@@H]2C[C@H]2C(C)(C)O)CC1 [Phellilane L],antimicrobial activity,[2],antimicrobial activities
CC(C)=CC[C@@H](O)[C@@H](C)[C@H]1CC[C@@]2(C)C3=C(CC[C@]12C)[C@@]1(C)CC[C@H](O)C(C)(C)[C@@H]1CC3 [Inotodiol],anti-proliferative activity,[9],anti-proliferative activities
same,NO inhibition,[10],NO-inhibiting effects
CC1=CC(=O)C2(O1)c1c(cc(/C=C/c3ccc(O)c(O)c3)oc1=O)OC2c1ccc(O)c(O)c1 (stereo not drawn) [inoscavin A],cell viability,[11],improve cell viabilities
C=C(CC[C@@H](C)[C@H]1CC[C@H]2C3=CC[C@H]4[C@H](C)[C@@H](O)CC[C@]4(C)C3=C[C@@H](O)[C@]12C)C(C)C [antcamphorol H],cytotoxicity,[12],cytotoxic activities
O=c1[nH]cc(F)c(=O)[nH]1 [5-fluorouracil],inhibition in cell growth,[13],12.6%
"CCOC(=O)C1=C[C@@H](OC(CC)CC)[C@H](NC(C)=O)[C@@H](N)C1 [Oseltamivir, reference compound]",IC50,[14],64 µM
C=C(CC[C@@H](C)[C@H]1CC[C@@]2(O)C3=C(C(=O)C[C@]12C)[C@@]1(C)CCC(=O)[C@@H](C)[C@@H]1CC3=O)C(C)C(=O)OCC (stereo partly drawn) [Antcamphin Z],cytotoxicity,[4],potent cytotoxic activities
same,effect on normal cells,[5],no significant effects on normal cells
O=c1oc2c(O)c(O)cc3c(=O)oc4c(O)c(O)cc1c4c23 [ellagic acid],aldose reductase inhibition,[15],capable of inhibiting aldose reductase
C=C1CCCC(C)(C)[C@H]1[C@H]1O[C@@H]1/C(C)=C/C(=O)O [phellidene E],antimicrobial activity,[2],did not show any detectable activities
"CC(=O)C=Cc1ccc(O)c(O)c1 [4-(3,4-Dihydroxyphenyl)-3-buten-2-one]",IC50,[14],52 µM
same,neuraminidase activity,[14],inhibit neuraminidase activity
same,antioxidant activity,[3],"Potent antioxidant activity, with higher antioxidant activity than BHA and Trolox in FRAP assay"
same,visible cytopathic effects,[16],"10 uM of both inhibited the formation of visible cytopathic effects, with IC50 values lower than Oseltamivir"
inonotusol I,interaction with iNOS protein,[7],capable of interacting with inducible-nitric oxide synthase (iNOS) protein
"COC1=C(OC)C(=O)C(C)=CC1=O [coenzyme Q0, 2,3-dimethoxy-5-methyl-1,4-benzoquinone]",apoptosis and autophagic cell death,[17],inducing apoptosis and autophagic cell death
same,apoptosis and autophagic cell death,[18],inducing apoptosis and autophagic cell death
CC1=CC(=O)[C@H](c2c(O)cc(/C=C/c3ccc(O)c(O)c3)oc2=O)[C@@H](c2ccc(O)c(O)c2)O1 [davallialactone],aldose reductase inhibition,[15],capable of inhibiting aldose reductase
"CC(C)(C)c1cc(O)ccc1O [tert-Butylhydroquinone (TBHQ), tert-Butylhydroquinone]",EC50,[6],11.2 µg/mL
"C=C1CCCC(C)(C)C1/C=C/C(C)=C/C(=O)O (stereo not drawn) [(2E,4E)-γ-Ionylideneacetic acid]",reducing power,[3],weak reducing power
C/C=C(\CO)CC[C@@H](C)[C@H]1CC[C@H]2C3=C(C(=O)C[C@]12C)[C@@]1(C)CC[C@@H](O)[C@](C)(O)[C@@H]1C[C@@H]3O [antcamphorol C],cytotoxicity,[12],cytotoxic activities
C[C@H](/C=C/C=O)[C@H]1CC[C@@]2(C)C3=C(CC[C@]12C)[C@@]1(C)CC[C@H](O)C(C)(C)[C@@H]1CC3 [inonotusane C],cytotoxicity,[19],cytotoxic activities
4-acetylantroquinonol B,IC50,"[20]; ref Tu et al. [186], read-out: IC50 of NO production",570 nM
same,NO production,[20]; ref [72],significantly inhibited
CC(C)=CCC[C@@H](C(=O)O)[C@H]1CC[C@@]2(C)C3=C(CC[C@]12C)[C@@]1(C)CC[C@H](O)C(C)(C)[C@@H]1CC3 [trametenolic acid],anti-proliferative activity,[9],anti-proliferative activities
same,NO inhibition,[10],NO-inhibiting effects
antcamphorol I,ROS scavenging,[1],ROS scavenging abilities
"O=c1cc(O)cc(/C=C/c2ccc(O)c(O)c2)o1 [Hispidin, hispidin]",lipid accumulation,[21],Significant reduction in lipid accumulation
same,ACE2 gene expression,[22],Reduced the expression of angiotensin-converting enzyme 2 (ACE2) gene
same,highest ROS scavenging activity,[23],"10–70 uM had notable reactive oxygen species (ROS) scavenging activity in a dose-dependent manner, with the highest activity being 65%"
same,highest ROS scavenging activity,[23]; listed as hispidin,about 65%
CC(C)(O)[C@H]1CC[C@H]([C@H]2CC[C@@]3(C)C4=C(CC[C@]23C)[C@@]2(C)CC[C@H](O)C(C)(C)[C@@H]2CC4)[C@H]1O [inonotsutriol A],NO inhibition,[10],NO-inhibiting effects
C=C(CC[C@@H](C(=O)O)[C@H]1CC[C@@]2(C)C3=C(CC[C@]12C)[C@@]1(C)CC[C@H](O)C(C)(C)[C@@H]1CC3)C(C)C [Eburicoic acid],"AMPK phosphorylation, Akt, membrane GLUT4",[24],"Increase AMPK phosphorylation, Akt, and membrane GLUT4 level"
same,PPAR-α expression in the liver,[25],Increased expression of PPAR-α in the liver which facilitated fatty acid oxidation and the reduction of lipid levels
C=C(C)[C@@H]1CC[C@]2(CO)CC[C@]3(C)[C@H](CC[C@@H]4[C@@]5(C)CC[C@H](O)C(C)(C)[C@@H]5CC[C@]43C)[C@@H]12 [betulin],proliferation,[26],inhibited the proliferation
O=C1C=C(/C=C/c2ccc(O)c(O)c2)OC12C(c1cc3oc(=O)c4cc(O)c(O)cc4c3c(=O)o1)=Cc1cc(O)c(O)cc12 (stereo not drawn) [phelligridin G],antiproliferative activity,[8],antiproliferative activity
C=C(C)[C@@H]1CC[C@]2(C(=O)O)CC[C@]3(C)[C@H](CC[C@@H]4[C@@]5(C)CC[C@H](O)C(C)(C)[C@@H]5CC[C@]43C)[C@@H]12 [betulinic acid],proliferation,[26],inhibited the proliferation
